The values below come from ChEMBL document CHEMBL1127128, “CGS 27830, a potent nonpeptide endothelin receptor antagonist” (Bioorg Med Chem Lett, 1993).

Series [1] deals with T1, Endothelin receptor type B (Rattus norvegicus, UniProt P21451).
T1 sequence (P21451 whole entry): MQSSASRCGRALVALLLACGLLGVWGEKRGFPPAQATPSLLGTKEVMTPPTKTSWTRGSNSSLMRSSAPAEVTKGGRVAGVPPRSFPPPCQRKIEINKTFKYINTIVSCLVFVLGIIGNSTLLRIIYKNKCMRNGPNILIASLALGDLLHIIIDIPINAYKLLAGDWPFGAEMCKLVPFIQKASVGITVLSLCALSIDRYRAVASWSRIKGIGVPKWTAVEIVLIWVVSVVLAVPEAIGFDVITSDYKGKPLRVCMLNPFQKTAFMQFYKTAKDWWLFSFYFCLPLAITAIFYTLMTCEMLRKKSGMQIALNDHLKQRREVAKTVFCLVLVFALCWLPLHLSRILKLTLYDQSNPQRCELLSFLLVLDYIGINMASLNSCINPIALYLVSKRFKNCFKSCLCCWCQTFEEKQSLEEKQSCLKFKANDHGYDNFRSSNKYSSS
The experiment in a line: Tested for its inhibitory activity against Endothelin B receptor.

The target in series [2] is T2, Endothelin-1 receptor (Sus scrofa, UniProt Q29010).
T2 sequence (Q29010 whole entry): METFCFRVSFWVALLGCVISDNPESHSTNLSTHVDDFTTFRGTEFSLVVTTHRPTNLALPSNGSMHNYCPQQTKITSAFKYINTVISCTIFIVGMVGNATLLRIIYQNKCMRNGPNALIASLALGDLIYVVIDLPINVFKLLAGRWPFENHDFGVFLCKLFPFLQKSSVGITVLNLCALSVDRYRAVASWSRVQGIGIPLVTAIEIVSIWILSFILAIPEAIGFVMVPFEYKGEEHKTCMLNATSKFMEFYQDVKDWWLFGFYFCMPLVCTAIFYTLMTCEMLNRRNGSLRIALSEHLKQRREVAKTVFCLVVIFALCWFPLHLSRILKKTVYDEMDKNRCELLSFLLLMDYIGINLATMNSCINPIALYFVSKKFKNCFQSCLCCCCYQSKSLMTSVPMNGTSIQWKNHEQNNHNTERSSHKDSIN
The series can be described thus: Tested for its inhibitory activity against Endothelin A receptor.

The target in series [3] is T1, Endothelin receptor type B. The experiment in a line: Tested for its inhibitory activity against Endothelin B receptor; Compound was inactive.
The target of series [4] is T2, Endothelin-1 receptor. The experiment in a line: Tested for its inhibitory activity against Endothelin A receptor; inactive.
For series [5], the target named is T1, Endothelin receptor type B. The experiment in a line: Tested for its ability to inhibit the binding of [125I]ET1 to the Endothelin B receptor in rat cerebellum membranes. It is filed as cell membranes, Membrane.
Series [6] deals with Rattus norvegicus. The experiment in a line: Tested for the dose at which depressor response attenuated by intravenous administration in conscious rat. Type of series: functional.
Series [7] deals with Voltage-gated L-type calcium channel (Rattus norvegicus, UniProt P22002+Q02485+P27732). The series can be described thus: Inhibition of [3H]PN-200-110 binding to L-type calcium channels in rat cortex membranes. It is filed as cell membranes, Membrane.
Series [8] relates to Rattus norvegicus. The series can be described thus: Tested for the dose at which pressor response abolished by intravenous administration. It is filed as functional.
The target of series [9] is T2, Endothelin-1 receptor. The series can be described thus: Tested for its ability to inhibit the binding of [125I]ET1 to the Endothelin A receptor in porcine thoracic aorta membranes. It is filed as cell membranes.
Series [10] in a line: The half-life period was reported. Type of series: ADME.
Series [11] can be described thus: Tested for inhibition of ET-1 induced phosphoinositide (PI) turnover in A7r5 smooth muscle cells. The following applies: Rattus norvegicus. It is filed as functional, cell-based.
Series [12] is filed under the species Oryctolagus cuniculus. The series can be described thus: Tested for inhibition of ET-1 induced contractile response in isolated rabbit aorta at the concentration of 10 uM. Type of series: functional.
The species entered for series [13] is Oryctolagus cuniculus. The experiment in a line: Tested for inhibition of ET-1 induced contractile response in isolated rabbit aorta at the concentration of 1 uM. Type of series: functional.
The species entered for series [14] is Oryctolagus cuniculus. The experiment in a line: Tested for inhibition of ET-1 induced contractile response in isolated rabbit aorta at the concentration of 0.1 uM. Type of series: functional.

Some results are limits rather than exact numbers.

A word on the IC50: it is the concentration that inhibits the measured activity by half. As to `COC(=O)C1=C(C)N=C(C)/C(=C(/O)OC(=O)C2=C(C)N=C(C)/C(=C(/O)OC)[C@@H]2c2cccc([N+](=O)[O-])c2)[C@H]1c1cccc([N+](=O)[O-])c1`, the figures for the 50% inhibitory concentration (IC50) (in [1]; on Endothelin-1 receptor [2]) were 2700 nM and 422 nM, respectively.

For the compound `COC(=O)C1=C(C)N=C(C)/C(=C(/O)OC(=O)C2=C(C)N=C(C)/C(=C(/O)OC)[C@H]2c2cccc([N+](=O)[O-])c2)[C@@H]1c1cccc([N+](=O)[O-])c1`, the IC50 result (in series [3]; against Endothelin-1 receptor [4]) was “Not Active” in each case.

Usually half-life stands for the time needed for the level to fall by half in the phase considered. As a reminder, the EC50 is the midpoint of the concentration-response curve. Low values mean an effect from little substance, high ones a need for much substance. A word on the inhibition: it is the drop in the measured response relative to a control, in per cent. Low readings indicate little suppression, high ones strong suppression. Turning to `COC(=O)C1=C(C)N=C(C)/C(=C(/O)OC(=O)C2=C(C)N=C(C)/C(=C(/O)OC)[C@@H]2c2cccc([N+](=O)[O-])c2)[C@@H]1c1cccc([N+](=O)[O-])c1`, the IC50 in series [5] came out at 295 nM; in series [7], 592 nM; on Endothelin-1 receptor [9], 15.9 nM. Further, the Dose in the series with Rattus norvegicus [6] turned out to be 0.25 nM/kg; in the series with Rattus norvegicus [8], 10 mg/kg. In series [10], the half-life was less than 1 h. Besides, the EC50 in [11] turned out to be 143 nM. In the series listed under Oryctolagus cuniculus [12], this compound displayed an inhibition at 10 µM of 77%. This compound also displayed an inhibition at 1 µM in the series listed under Oryctolagus cuniculus [13] of 42%. The inhibition at 0.1 µM in the series listed under Oryctolagus cuniculus [14] amounted to 33%.
